Experimental data published in ChEMBL document CHEMBL1155301, “Optimization of the aminopyridopyrazinones class of PDE5 inhibitors: discovery of 3-[(trans-4-hydroxycyclohexyl)amino]-7-(6-methoxypyridin-3-yl)-1-(2-propoxyethyl)pyrido[3,4-b]pyrazin-2(1H)-one” (Bioorg Med Chem Lett, 2009).
pIC50: −log10 of the molar value. Where “and” joins values, the source holds several entries; their conditions need not be identical. Identical values can stand only once. Calls of active or inactive are those of the source. The rule behind the calls is not given here.

How the values were obtained:
[1] = molecular target: cGMP-specific 3',5'-cyclic phosphodiesterase (Homo sapiens, UniProt O76074); test: Inhibition of PDE5
[2] = molecular target: Rod cGMP-specific 3',5'-cyclic phosphodiesterase subunit alpha (Homo sapiens, UniProt P16499); test: Inhibition of PDE6
Chain of Rod cGMP-specific 3',5'-cyclic phosphodiesterase subunit alpha (P16499 whole entry): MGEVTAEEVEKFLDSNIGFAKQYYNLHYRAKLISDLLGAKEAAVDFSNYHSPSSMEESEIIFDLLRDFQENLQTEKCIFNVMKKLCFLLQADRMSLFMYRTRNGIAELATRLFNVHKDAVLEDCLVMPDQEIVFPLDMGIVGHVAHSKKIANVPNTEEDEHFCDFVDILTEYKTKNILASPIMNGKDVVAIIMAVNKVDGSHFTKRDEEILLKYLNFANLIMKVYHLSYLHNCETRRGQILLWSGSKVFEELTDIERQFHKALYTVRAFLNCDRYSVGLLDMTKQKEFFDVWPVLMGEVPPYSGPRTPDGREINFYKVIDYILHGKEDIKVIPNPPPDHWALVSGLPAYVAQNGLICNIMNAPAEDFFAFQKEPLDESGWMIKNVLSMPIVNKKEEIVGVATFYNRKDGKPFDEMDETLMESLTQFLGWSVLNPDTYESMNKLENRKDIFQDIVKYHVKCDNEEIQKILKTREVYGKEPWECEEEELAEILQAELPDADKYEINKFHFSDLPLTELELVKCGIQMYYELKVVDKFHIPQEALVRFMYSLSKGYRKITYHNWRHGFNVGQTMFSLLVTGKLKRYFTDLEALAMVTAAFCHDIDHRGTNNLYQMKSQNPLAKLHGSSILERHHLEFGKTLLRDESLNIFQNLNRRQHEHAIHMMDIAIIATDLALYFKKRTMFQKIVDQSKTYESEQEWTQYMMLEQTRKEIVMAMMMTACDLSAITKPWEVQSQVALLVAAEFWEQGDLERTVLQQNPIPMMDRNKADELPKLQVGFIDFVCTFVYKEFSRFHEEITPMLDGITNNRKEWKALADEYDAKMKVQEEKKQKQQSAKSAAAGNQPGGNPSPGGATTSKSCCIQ

[3] = tested on: Rattus norvegicus; test: Antihypertensive activity against telemeterized rat at 10 mg/kg, po; assay type: functional, organism-based; set-up: dose 10 mg/kg
[4] = Selectivity ratio of IC50 for PDE5 to IC50 for PDE6
[5] = Half life in rat; assay type: ADME, organism-based; settings: in vivo
[6] = Oral bioavailability in rat at 2 mg/kg; assay type: ADME, organism-based; settings: in vivo
[7] = Half life in rat at 2 mg/kg, po and 2 mg/kg, iv; assay type: ADME, organism-based; settings: in vivo
[8] = Volume of distribution in rat at 2 mg/kg, iv and 2 mg/kg, po; assay type: ADME, organism-based; settings: in vivo
[9] = Clearance in rat at 2 mg/kg, po and 2 mg/kg, iv; assay type: ADME, organism-based; settings: in vivo
[10] = Oral bioavailability in dog at 2 mg/kg; assay type: ADME, organism-based, Canis lupus familiaris; settings: in vivo
[11] = Half life in dog at 2 mg/kg, po and 2 mg/kg, iv; assay type: ADME, organism-based, Canis lupus familiaris; settings: in vivo
[12] = Clearance in dog at 2 mg/kg, po and 2 mg/kg, iv; assay type: ADME, organism-based, Canis lupus familiaris; settings: in vivo
[13] = Volume of distribution in dog at 2 mg/kg, iv and 2 mg/kg, po; assay type: ADME, organism-based, Canis lupus familiaris; settings: in vivo
[14] = species on record: Rattus norvegicus; test: Unbound clearance in rat; assay type: ADME, organism-based; settings: in vivo
[15] = species on record: Rattus norvegicus; test: Unbound volume of distribution in rat; assay type: ADME, organism-based; settings: in vivo

Row | SMILES | pIC50 [1] | pIC50 [2] | clearance [9] | other results
1 | CCCOCCn1c(=O)c(NCCN(C)C)nc2cnc(-c3ccc(OC)nc3)cc21 | 9.11 | 6.58 | – | –
2 | CCCOCCn1c(=O)c(NCCN)nc2cnc(-c3ccc(OC)nc3)cc21 | 9.60 | 5.92 | – | –
3 | CCCOCCn1c(=O)c(NCCO)nc2cnc(-c3ccc(OC)nc3)cc21 | 9.05 | 7.58 | – | Activity [3]: inactive; Ratio IC50 [4]: 30
4 | CCCOCCn1c(=O)c(NCCN2CCOCC2)nc2ncc(-c3ccc(OC)nc3)cc21 | – | 7.21 | – | half-life [5]: 108 min
5 | CCCOCCn1c(=O)c(NCC(=O)O)nc2cnc(-c3ccc(OC)nc3)cc21 | 8.98 | 7.34 | – | Activity [3]: inactive; Ratio IC50 [4]: 43 and 30
6 | CCCOCCn1c(=O)c(NCCN(C)C)nc2ncc(-c3ccc(OC)nc3)cc21 | 8.40 | 5.80 | – | –
7 | CCCOCCn1c(=O)c(NCC(=O)N2CCC(O)CC2)nc2cnc(-c3ccc(OC)nc3)cc21 | 9.89 | 7.61 | 10.5 mL/min/kg | bioavailability [6]: 52%; half-life [7]: 102 min; Vd [8]: 1 L/kg
8 | CCCOCCn1c(=O)c(NCCO)nc2ncc(-c3ccc(OC)nc3)cc21 | 8.93 | 6.94 | – | Activity [3]: Active; Ratio IC50 [4]: 97
9 | CCCOCCn1c(=O)c(NCC(=O)N2CCOCC2)nc2cnc(-c3ccc(OC)nc3)cc21 | 9.82 | 7.79 | 9.1 mL/min/kg | bioavailability [10]: 32%; bioavailability [6]: 35%; half-life [7]: 48 min; Vd [8]: 0.5 L/kg; half-life [11]: 234 min; clearance [12]: 5.3 mL/min/kg; Vd [13]: 1.2 L/kg
10 | CCCOCCn1c(=O)c(NCCCO)nc2cnc(-c3ccc(OC)nc3)cc21 | 9.59 | 7.86 | 28 mL/min/kg | bioavailability [6]: 52%; CL free [14]: 730 mL/min/kg; half-life [7]: 42 min; Vd [8]: 1.2 L/kg; Ratio IC50 [4]: 30; Vdu [15]: 31 L/kg
11 | CCCOCCn1c(=O)c(N[C@H](C)CO)nc2cnc(-c3ccc(OC)nc3)cc21 | 9.85 | 7.75 | – | –
12 | CCCOCCn1c(=O)c(NCC2CCOCC2)nc2ncc(-c3ccc(OC)nc3)cc21 | 9.85 | 7.50 | 30 mL/min/kg | bioavailability [6]: 15%; Activity [3]: Active
13 | CCCOCCn1c(=O)c(NCc2cnccn2)nc2cnc(-c3ccc(OC)nc3)cc21 | 10.22 | 8.33 | – | –
14 | CCCOCCn1c(=O)c(N[C@H]2CC[C@H](O)CC2)nc2ncc(-c3ccc(OC)nc3)cc21 | 9.49 | 7.82 | – | –
15 | CCCOCCn1c(=O)c(NCc2ccccn2)nc2ncc(-c3ccc(OC)nc3)cc21 | 9.44 | 7.46 | – | –
16 | CCCOCCn1c(=O)c(NCC(=O)N(C)C)nc2cnc(-c3ccc(OC)nc3)cc21 | 9.17 | 7.06 | 27 mL/min/kg | bioavailability [10]: 30%; bioavailability [6]: 52%; half-life [7]: 36 min; Vd [8]: 0.9 L/kg; Activity [3]: Active; Ratio IC50 [4]: 97; half-life [11]: 258 min; clearance [12]: 1.8 mL/min/kg; Vd [13]: 0.4 L/kg
17 | CCCOCCn1c(=O)c(NCC(=O)N2CCOCC2)nc2ncc(-c3ccc(OC)nc3)cc21 | 8.93 | 6.94 | 18 mL/min/kg | bioavailability [10]: 32%; bioavailability [6]: 51%; half-life [7]: 48 min; Vd [8]: 0.8 L/kg; half-life [11]: 54 min; clearance [12]: 16.7 mL/min/kg; Vd [13]: 0.9 L/kg
18 | CCCOCCn1c(=O)c(NCc2cnccn2)nc2ncc(-c3ccc(OC)nc3)cc21 | 9.55 | 7.63 | – | Activity [3]: Active
19 | CCCOCCn1c(=O)c(N[C@H](C)CO)nc2ncc(-c3ccc(OC)nc3)cc21 | 9.06 | 7.20 | – | –
20 | CCCOCCn1c(=O)c(NC[C@H](C)O)nc2cnc(-c3ccc(OC)nc3)cc21 | 10.05 | 7.82 | 13.8 mL/min/kg | bioavailability [10]: 38%; bioavailability [6]: 42%; CL free [14]: 500 mL/min/kg; half-life [7]: 78 min; Vd [8]: 1 L/kg; half-life [11]: 246 min; clearance [12]: 17.8 mL/min/kg; Vdu [15]: 35 L/kg; Vd [13]: 4.3 L/kg
21 | CCCOCCn1c(=O)c(NCCNCCO)nc2cnc(-c3ccc(OC)nc3)cc21 | 8.96 | 6.57 | 170 mL/min/kg | bioavailability [6]: 53%; Activity [3]: Active
22 | CCCOCCn1c(=O)c(NCC(=O)N2CCN(CC)CC2)nc2ncc(-c3ccc(OC)nc3)cc21 | 9.42 | 7.00 | – | –
23 | CCCOCCn1c(=O)c(NCCN)nc2ncc(-c3ccc(OC)nc3)cc21 | 7.79 | < 5.70 | – | –

Row | SMILES | pIC50 [1] | pIC50 [2] | clearance [9] | other results
24 | CCCOCCn1c(=O)c(NCCCO)nc2ncc(-c3ccc(OC)nc3)cc21 | 9.15 | 6.91 | – | –
25 | CCCOCCn1c(=O)c(NC[C@@H](C)O)nc2cnc(-c3ccc(OC)nc3)cc21 | 10.00 | 7.82 | – | –
26 | CCCOCCn1c(=O)c(NCC(=O)N2CCCC2)nc2cnc(-c3ccc(OC)nc3)cc21 | 10.10 | 7.40 | – | –
27 | CCCOCCn1c(=O)c(NCCOCC)nc2ncc(-c3ccc(OC)nc3)cc21 | 9.77 | 7.24 | – | Activity [3]: inactive
28 | CCCOCCn1c(=O)c(NCC2CCCO2)nc2cnc(-c3ccc(OC)nc3)cc21 (racemic) | 10.30 | 8.07 | 52 mL/min/kg | Activity [3]: Active
29 | CCCOCCn1c(=O)c(NCC(=O)N2CCN(CC)CC2)nc2cnc(-c3ccc(OC)nc3)cc21 | 9.89 | 7.25 | 28 mL/min/kg | bioavailability [10]: 15%; bioavailability [6]: 61%; half-life [7]: 84 min; Vd [8]: 2.3 L/kg; half-life [11]: 210 min; clearance [12]: 37 mL/min/kg; Vd [13]: 8 L/kg
30 | CCCOCCn1c(=O)c(NCC(=O)N2CCN(C)CC2)nc2cnc(-c3ccc(OC)nc3)cc21 | 10.15 | 7.83 | – | –
31 | CCCOCCn1c(=O)c(NCC(N)=O)nc2cnc(-c3ccc(OC)nc3)cc21 | 9.17 | 7.06 | – | –
32 | CCCOCCn1c(=O)c(NCC(N)=O)nc2ncc(-c3ccc(OC)nc3)cc21 | 8.59 | 6.40 | – | –
33 | CCCOCCn1c(=O)c(NCC(=O)N(C)C)nc2ncc(-c3ccc(OC)nc3)cc21 | 8.59 | 6.40 | 33 mL/min/kg | bioavailability [10]: 32%; bioavailability [6]: 46%; half-life [7]: 36 min; Vd [8]: 1.1 L/kg; Activity [3]: Active; half-life [11]: 126 min; clearance [12]: 9.4 mL/min/kg; Vd [13]: 1.2 L/kg
34 | CCCOCCn1c(=O)c(N[C@@H](C)CO)nc2cnc(-c3ccc(OC)nc3)cc21 | 9.62 | 7.75 | – | –
35 | CCCOCCn1c(=O)c(NC[C@H](C)O)nc2ncc(-c3ccc(OC)nc3)cc21 | 9.47 | 7.29 | – | –
36 | CCCOCCn1c(=O)c(NC[C@@H](C)O)nc2ncc(-c3ccc(OC)nc3)cc21 | 9.27 | 7.30 | – | –
37 | CCCOCCn1c(=O)c(N[C@H](CC)CO)nc2cnc(-c3ccc(OC)nc3)cc21 | 9.60 | 7.63 | 22.6 mL/min/kg | bioavailability [6]: 61%; half-life [7]: 108 min; Vd [8]: 2.4 L/kg
38 | CCCOCCn1c(=O)c(NCC(=O)N2CCN(C)CC2)nc2ncc(-c3ccc(OC)nc3)cc21 | 9.49 | 7.10 | – | –
39 | CCCOCCn1c(=O)c(NCC(=O)N2CCNCC2)nc2cnc(-c3ccc(OC)nc3)cc21 | 8.78 | 7.00 | – | –
40 | CCCOCCn1c(=O)c(NCC(=O)NC)nc2cnc(-c3ccc(OC)nc3)cc21 | 10.15 | 7.82 | – | –
41 | CCCOCCn1c(=O)c(NCC(=O)NC)nc2ncc(-c3ccc(OC)nc3)cc21 | 9.37 | 6.94 | 19.5 mL/min/kg | bioavailability [10]: 52%; bioavailability [6]: 39%; half-life [7]: 48 min; Vd [8]: 1 L/kg; half-life [11]: 144 min; clearance [12]: 8.8 mL/min/kg; Vd [13]: 1.3 L/kg
42 | CCCOCCn1c(=O)c(NCC(=O)O)nc2ncc(-c3ccc(OC)nc3)cc21 | 8.53 | 6.24 | – | –
43 | CCCOCCn1c(=O)c(N[C@@H](C)CO)nc2ncc(-c3ccc(OC)nc3)cc21 | 9.26 | 7.17 | – | –
44 | CCCOCCn1c(=O)c(NCc2ccccn2)nc2cnc(-c3ccc(OC)nc3)cc21 | 10.40 | 7.97 | 21.9 mL/min/kg | bioavailability [6]: 54%; Activity [3]: Active
45 | CCCOCCn1c(=O)c(NCCOCC)nc2cnc(-c3ccc(OC)nc3)cc21 | 9.96 | 8.03 | – | –
